In PMC11436758, “Computer-aided drug design to generate a unique antibiotic family” (Nature Communications, 2024):
≈ marks a conversion by molar mass, not a printed value.

What was measured:
Type in all cases: cell-based
S. aureus (MRSA) = experiment: MIC, clinical and laboratory strains
Procedure: (§1) The medium employed for the assay was Mueller Hinton II Broth (MHB II; Becton-Dickinson, Sparks, MD, USA). Agar plates used for the organisms were trypticase soy agar plus 5% sheep blood (BD; Sparks, MD, USA). MIC assay plates were prepared using the CLSI broth microdilution procedure. Automated liquid handlers (Multidrop 384, Biomek 2000 and Biomek FX) were used to conduct serial dilutions and liquid transfers. A standardized inoculum of each organism was prepared per CLSI methods. Suspensions were prepared to equal a 0.5 McFarland standard, followed by a 1:20 dilution in test media. The inocula were dispensed into sterile reservoirs divided by length (Beckman Colter) and the Biomek 2000 was used to inoculate the plates. Daughter plates were placed on the Biomek 2000 work surface in reverse orientation so that inoculation took place from low to high drug concentration. The Biomek 2000 delivered 10 μL of the diluted suspension into each well. These inoculations yielded a final cell concentration in the daughter plates of ~5 × 10^5 colony-forming units/mL in each well. The wells of the daughter plates ultimately contained 185 μL of broth, 5 μL of drug solution, and 10 μL of bacterial inoculum. Plates were covered with a sterile lid on the top plate, placed in plastic bags, and incubated at 35 °C for ~18 h. The microplates were viewed from the bottom using a plate viewer and the MIC was read. The MIC was recorded as the lowest concentration of drug that inhibited visible growth of the organism.

S. aureus (MSSA) = experiment: MIC, clinical and laboratory strains
Procedure: as §1

S. aureus (VISA) = experiment: MIC, clinical and laboratory strains
Procedure: as §1

[1] = tested on: 102 ATCC strains and clinical isolates of Staphylococcus, Streptomyces, and Enterococcus; experiment: MIC panel summary over all strains; conditions: of 102 strains
Procedure: We also sought to determine if DNM0547 was bacteriostatic or bactericidal. Time kill experiments were carried out using increasing doses of DNM0547 against two different strains of MRSA.
as §1

MIC (S. aureus (MRSA); S. aureus (MRSA) 2167): > 16 µg/mL | MIC (S. aureus (MRSA); S. aureus (MRSA) 2168): > 16 µg/mL | MIC (S. aureus (MRSA); S. aureus (MRSA) 2169): > 16 µg/mL | MIC (S. aureus (MRSA); S. aureus (MRSA) 2170): > 16 µg/mL | MIC (S. aureus (MRSA); S. aureus (MRSA) 2171): > 16 µg/mL | MIC (S. aureus (MRSA); S. aureus (MRSA) 2293): > 16 µg/mL | MIC (S. aureus (MRSA); S. aureus (MRSA) 2294): > 16 µg/mL | MIC (S. aureus (MRSA); S. aureus (MRSA) 2295): > 16 µg/mL | MIC (S. aureus (MRSA); S. aureus (MRSA) 2296): 0.5 µg/mL (≈ 0.681 µM) | MIC (S. aureus (MRSA); S. aureus (MRSA) 2297): > 16 µg/mL | MIC (S. aureus (MRSA); S. aureus (MRSA) 3880): > 16 µg/mL | MIC (S. aureus (MRSA); S. aureus (MRSA) 5373): > 16 µg/mL | MIC (S. aureus (MRSA); S. aureus (MRSA) 5666): > 16 µg/mL | MIC (S. aureus (MRSA); S. aureus (MRSA) 5702): > 16 µg/mL | MIC (S. aureus (MRSA); S. aureus (MRSA) 5999): > 16 µg/mL | MIC (S. aureus (MRSA); S. aureus (MRSA) 6165): > 16 µg/mL | MIC (S. aureus (MRSA); S. aureus (MRSA) 6169): > 16 µg/mL | MIC (S. aureus (MRSA); S. aureus (MRSA) 6174): > 16 µg/mL | MIC (S. aureus (MRSA); S. aureus (MRSA) 6311): > 16 µg/mL | MIC (S. aureus (MRSA); S. aureus (MRSA) 6312): > 16 µg/mL | MIC (S. aureus (MRSA); S. aureus (MRSA) 6313): > 16 µg/mL | MIC (S. aureus (MRSA); S. aureus (MRSA) 6315): > 16 µg/mL | MIC (S. aureus (MRSA); S. aureus (MRSA) 6320): > 16 µg/mL | MIC (S. aureus (MRSA); S. aureus (MRSA) 6498): 0.5 µg/mL (≈ 0.681 µM) | MIC (S. aureus (MRSA); S. aureus (MRSA) 6501): > 16 µg/mL | MIC (S. aureus (MRSA); S. aureus (MRSA) 6505): > 16 µg/mL | MIC (S. aureus (MRSA); S. aureus (MRSA) 6506): 0.5 µg/mL (≈ 0.681 µM) | MIC (S. aureus (MRSA); S. aureus (MRSA) NRS382/2119): > 16 µg/mL | MIC (S. aureus (MRSA); S. aureus (MRSA) NRS383/2120): > 16 µg/mL | MIC (S. aureus (MRSA); S. aureus (MRSA) NRS384/2011): > 16 µg/mL | MIC (S. aureus (MSSA); S. aureus (MSSA) 2127): 0.12 µg/mL (≈ 0.164 µM) | MIC (S. aureus (MSSA); S. aureus (MSSA) 6167): > 16 µg/mL | MIC (S. aureus (MSSA); S. aureus (MSSA) 6168): 0.25 µg/mL (≈ 0.341 µM) | MIC (S. aureus (MSSA); S. aureus (MSSA) 6170): 0.5 µg/mL (≈ 0.681 µM) | MIC (S. aureus (MSSA); S. aureus (MSSA) 6316): > 16 µg/mL | MIC (S. aureus (MSSA); S. aureus (MSSA) 6317): 0.5 µg/mL (≈ 0.681 µM) | MIC (S. aureus (MSSA); S. aureus (MSSA) 6318): > 16 µg/mL | MIC (S. aureus (MSSA); S. aureus (MSSA) 6499): > 16 µg/mL | MIC (S. aureus (MSSA); S. aureus (MSSA) 6500): 8 µg/mL (≈ 10.9 µM) | MIC (S. aureus (MSSA); S. aureus (MSSA) 6502): 0.25 µg/mL (≈ 0.341 µM) | MIC (S. aureus (VISA); S. aureus (VISA) 1724): 0.25 µg/mL (≈ 0.341 µM) | MIC (S. aureus (VISA); S. aureus (VISA) 2012): > 16 µg/mL | MIC (S. aureus (VISA); S. aureus (VISA) 2013): > 16 µg/mL | MIC (S. aureus (VISA); S. aureus (VISA) 2014): > 16 µg/mL | MIC (S. aureus (VISA); S. aureus (VISA) 2015): > 16 µg/mL | MIC (S. aureus (VISA); S. aureus (VISA) 2016): > 16 µg/mL | MIC (S. aureus (VISA); S. aureus (VISA) 2017): 0.25 µg/mL (≈ 0.341 µM) | MIC (S. aureus (VISA); S. aureus (VISA) 2018): > 16 µg/mL | MIC (S. aureus (VISA); S. aureus (VISA) 2019): > 16 µg/mL | MIC (S. aureus (VISA); S. aureus (VISA) 2123): > 16 µg/mL | MIC (S. aureus (VISA); S. aureus (VISA) NRS1/1723): > 16 µg/mL | number of strains tested with MIC not ≤ 2 μg/mL [1]: 76
SMILES: CC[C@H]1OC(=O)[C@H](C)[C@@H](O[C@H]2C[C@@](C)(OC)[C@@H](O)[C@H](C)O2)[C@H](C)[C@@H](O[C@@H]2O[C@H](C)C[C@H](N(C)C)[C@H]2O)[C@](C)(O)C[C@@H](C)C(=O)[C@H](C)[C@@H](O)[C@]1(C)O [erythromycin]
